The values that follow come from patent US20230027026A1, “FUSED PYRIMIDINE COMPOUNDS, COMPOSITIONS AND MEDICINAL APPLICATIONS THEREOF” (JUBILANT BIOSYS LIMITED, priority 2019, published 2023).

Holding throughout (format): cell-based
One test relates to A431 cells. Description: Cellular proliferation (Alamar Blue) assay, A431. The note with it: Homo sapiens, A-431; A431 cells, 72 hr, Alamar Blue; read-out: A431 IC50. The gist of the method:
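Seventy-two-hour growth assay with 3-fold compound titration (final 10–0.0005 μM) and Alamar Blue fluorescence end point, ex 540/em 590 nm.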
(In general: The colour change of resazurin is a common sign of viable cells or microbes.)

For test [1], the target named is EGFR (A767_dupASV) expressing Ba/F3 stable cell line (Homo sapiens, UniProt P00533, DUP767-769, cells depend on it). Description: Cellular proliferation (Alamar Blue) assay, EGFR A767_dupASV Ba/F3. The note with it: EGFR A767_dupASV Ba/F3, 72 hr, read-out: A767 IC50. The gist of the method: (§1)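 Fluorescence read-out (ex 540/em 590 nm) after 3 h Alamar Blue incubation, following 72 h compound exposure at 37 °C, 5% CO2. Final compound range 10–0.0005 μM, 3-fold steps; Ba/F3 cells plated 15,000/well in RPMI + 10% FBS overnight beforehand.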
EGFR (A767_dupASV) expressing Ba/F3 stable cell line, sequence (P00533 with tags, fused parts or gaps DUP767-769): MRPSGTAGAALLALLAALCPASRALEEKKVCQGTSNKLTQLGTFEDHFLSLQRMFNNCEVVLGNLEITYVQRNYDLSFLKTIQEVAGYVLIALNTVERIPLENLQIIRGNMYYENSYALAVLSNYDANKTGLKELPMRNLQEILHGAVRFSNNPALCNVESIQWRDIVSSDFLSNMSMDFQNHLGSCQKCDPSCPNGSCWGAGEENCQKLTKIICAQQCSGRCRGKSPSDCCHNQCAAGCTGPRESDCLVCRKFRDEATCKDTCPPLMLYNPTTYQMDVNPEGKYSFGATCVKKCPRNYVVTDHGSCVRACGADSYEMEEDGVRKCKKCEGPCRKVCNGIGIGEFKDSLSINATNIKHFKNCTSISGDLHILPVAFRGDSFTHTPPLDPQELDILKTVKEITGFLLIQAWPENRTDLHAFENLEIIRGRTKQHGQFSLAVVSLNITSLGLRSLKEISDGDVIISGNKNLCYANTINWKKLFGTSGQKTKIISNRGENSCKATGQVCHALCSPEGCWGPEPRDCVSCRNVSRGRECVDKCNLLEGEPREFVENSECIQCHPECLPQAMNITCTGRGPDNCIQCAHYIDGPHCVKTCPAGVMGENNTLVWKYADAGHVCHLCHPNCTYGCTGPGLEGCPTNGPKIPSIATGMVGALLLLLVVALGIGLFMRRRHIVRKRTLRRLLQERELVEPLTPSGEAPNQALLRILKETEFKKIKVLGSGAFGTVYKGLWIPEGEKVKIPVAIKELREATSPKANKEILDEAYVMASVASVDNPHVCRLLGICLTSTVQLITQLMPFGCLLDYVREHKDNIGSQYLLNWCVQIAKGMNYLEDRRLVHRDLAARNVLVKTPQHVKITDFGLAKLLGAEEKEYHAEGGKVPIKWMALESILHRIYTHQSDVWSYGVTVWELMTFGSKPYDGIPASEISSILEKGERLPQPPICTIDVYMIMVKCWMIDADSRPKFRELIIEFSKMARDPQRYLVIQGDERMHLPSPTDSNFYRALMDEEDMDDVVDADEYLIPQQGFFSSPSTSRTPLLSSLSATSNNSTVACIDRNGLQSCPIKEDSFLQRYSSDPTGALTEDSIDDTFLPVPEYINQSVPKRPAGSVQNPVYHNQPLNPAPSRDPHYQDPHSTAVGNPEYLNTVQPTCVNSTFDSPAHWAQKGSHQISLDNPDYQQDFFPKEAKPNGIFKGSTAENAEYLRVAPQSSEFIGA

In test [2] the target is EGFR(D770_N771insSVD) expressing Ba/F3 stable cell line (Homo sapiens, UniProt P00533, DUP768-770, cells depend on it). Nature of the test: Cellular proliferation (Alamar Blue) assay, EGFR D770_N771insSVD Ba/F3. The note with it: EGFR D770_N771insSVD Ba/F3, 72 hr, read-out: D770 IC50. A digest of the protocol:
as §1

Test [3] has as its target HER2 (A775_G776insYVMA) expressing Ba/F3 stable cell line (Homo sapiens, UniProt P04626, DUP772-775, cells depend on it). Description: Cellular proliferation (Alamar Blue) assay, HER2 YVMA Ba/F3. The note with it: HER2 A775_G776insYVMA Ba/F3, 72 hr, read-out: YVMA IC50. How it is done: Example 3: Cellular Proliferation (Alamar Blue) Assays
• 1. EGFR(D770_N771insSVD) expressing Ba/F3 stable cell line • 2. EGFR (A767_dupASV) expressing Ba/F3 stable cell line • 3. A431 cells • 4. BTER2 (A775_G776insYVMA) expressing Ba/F3 stable cell line • 5. BTER2 (WT) expressing Ba/F3 stable cell line • 6. BT-474 cells
• 1. Seed cells at 5000 for A431 and 15,000 cells for Ba/F3 in 100 μL/well in complete media (for A431: DMEM with 10% FBS and for Ba/F3 cells: RPMI with 10% FBS) in 96-well tissue culture plate. Leave outer wells without cells for background measurements. Incubate at 37 degree Celsius in 5% CO2 humidified incubator for 16-18 hours. • 2. Add 0.025 ml of 5× concentration compound dilution or DMSO control. Final compound concentration range is 10-0.0005 μM prepared in 3-fold serial dilutions. Incubate for 72 hr at 37 degree Celsius in […] humidified incubator. • 3. Add 0.0125 mL Alamar Blue™ reagent to each well with multi-channel pipette and tap gently on each side of the plate to mix. Incubate for 3 hours at 37 degree Celsius in […] humidified incubator. • 4. Read plates on fluorescence reader (Tecan Spark Control, Device: Spark, Serial #: 1801006040) at 540 nm excitation, 590 nm emission wavelength. • 5. Data analysis was performed using XLfit 5.5.0.5.

Where a name gives a salt, the structure may show the parent alone.

EGFR(D770_N771insSVD) expressing Ba/F3 stable cell line, sequence (P00533 with tags, fused parts or gaps DUP768-770): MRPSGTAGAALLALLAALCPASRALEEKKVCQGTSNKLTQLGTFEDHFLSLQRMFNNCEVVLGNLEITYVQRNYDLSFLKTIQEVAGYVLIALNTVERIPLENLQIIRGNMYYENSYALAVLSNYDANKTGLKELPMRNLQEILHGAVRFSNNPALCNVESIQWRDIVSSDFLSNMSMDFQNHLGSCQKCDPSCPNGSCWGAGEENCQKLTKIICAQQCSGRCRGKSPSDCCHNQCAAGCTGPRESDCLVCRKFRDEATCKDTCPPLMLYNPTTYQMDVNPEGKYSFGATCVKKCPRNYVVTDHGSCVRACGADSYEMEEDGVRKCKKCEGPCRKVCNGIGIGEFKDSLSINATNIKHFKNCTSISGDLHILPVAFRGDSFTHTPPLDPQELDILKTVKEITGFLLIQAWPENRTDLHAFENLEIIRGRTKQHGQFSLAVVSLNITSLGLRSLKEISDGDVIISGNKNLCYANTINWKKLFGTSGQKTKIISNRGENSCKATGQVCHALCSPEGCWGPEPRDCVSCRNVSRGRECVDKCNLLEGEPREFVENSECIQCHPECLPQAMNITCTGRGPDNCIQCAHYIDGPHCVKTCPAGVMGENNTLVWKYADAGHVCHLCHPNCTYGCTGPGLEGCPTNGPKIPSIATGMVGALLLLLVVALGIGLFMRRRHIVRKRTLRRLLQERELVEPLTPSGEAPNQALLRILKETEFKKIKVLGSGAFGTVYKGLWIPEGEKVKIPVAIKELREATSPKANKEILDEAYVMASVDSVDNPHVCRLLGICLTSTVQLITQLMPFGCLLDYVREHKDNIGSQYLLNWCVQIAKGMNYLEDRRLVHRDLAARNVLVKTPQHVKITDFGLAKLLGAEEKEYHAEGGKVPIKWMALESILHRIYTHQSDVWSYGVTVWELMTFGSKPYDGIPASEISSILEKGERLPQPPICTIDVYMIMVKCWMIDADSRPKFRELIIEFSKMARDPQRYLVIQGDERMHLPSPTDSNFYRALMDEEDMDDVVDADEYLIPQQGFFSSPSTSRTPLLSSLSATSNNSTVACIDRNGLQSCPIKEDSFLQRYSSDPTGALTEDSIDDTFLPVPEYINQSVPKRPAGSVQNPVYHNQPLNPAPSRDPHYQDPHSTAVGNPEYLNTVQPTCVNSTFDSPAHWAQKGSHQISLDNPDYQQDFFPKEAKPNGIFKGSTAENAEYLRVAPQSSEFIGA
HER2 (A775_G776insYVMA) expressing Ba/F3 stable cell line, sequence (P04626 with tags, fused parts or gaps DUP772-775): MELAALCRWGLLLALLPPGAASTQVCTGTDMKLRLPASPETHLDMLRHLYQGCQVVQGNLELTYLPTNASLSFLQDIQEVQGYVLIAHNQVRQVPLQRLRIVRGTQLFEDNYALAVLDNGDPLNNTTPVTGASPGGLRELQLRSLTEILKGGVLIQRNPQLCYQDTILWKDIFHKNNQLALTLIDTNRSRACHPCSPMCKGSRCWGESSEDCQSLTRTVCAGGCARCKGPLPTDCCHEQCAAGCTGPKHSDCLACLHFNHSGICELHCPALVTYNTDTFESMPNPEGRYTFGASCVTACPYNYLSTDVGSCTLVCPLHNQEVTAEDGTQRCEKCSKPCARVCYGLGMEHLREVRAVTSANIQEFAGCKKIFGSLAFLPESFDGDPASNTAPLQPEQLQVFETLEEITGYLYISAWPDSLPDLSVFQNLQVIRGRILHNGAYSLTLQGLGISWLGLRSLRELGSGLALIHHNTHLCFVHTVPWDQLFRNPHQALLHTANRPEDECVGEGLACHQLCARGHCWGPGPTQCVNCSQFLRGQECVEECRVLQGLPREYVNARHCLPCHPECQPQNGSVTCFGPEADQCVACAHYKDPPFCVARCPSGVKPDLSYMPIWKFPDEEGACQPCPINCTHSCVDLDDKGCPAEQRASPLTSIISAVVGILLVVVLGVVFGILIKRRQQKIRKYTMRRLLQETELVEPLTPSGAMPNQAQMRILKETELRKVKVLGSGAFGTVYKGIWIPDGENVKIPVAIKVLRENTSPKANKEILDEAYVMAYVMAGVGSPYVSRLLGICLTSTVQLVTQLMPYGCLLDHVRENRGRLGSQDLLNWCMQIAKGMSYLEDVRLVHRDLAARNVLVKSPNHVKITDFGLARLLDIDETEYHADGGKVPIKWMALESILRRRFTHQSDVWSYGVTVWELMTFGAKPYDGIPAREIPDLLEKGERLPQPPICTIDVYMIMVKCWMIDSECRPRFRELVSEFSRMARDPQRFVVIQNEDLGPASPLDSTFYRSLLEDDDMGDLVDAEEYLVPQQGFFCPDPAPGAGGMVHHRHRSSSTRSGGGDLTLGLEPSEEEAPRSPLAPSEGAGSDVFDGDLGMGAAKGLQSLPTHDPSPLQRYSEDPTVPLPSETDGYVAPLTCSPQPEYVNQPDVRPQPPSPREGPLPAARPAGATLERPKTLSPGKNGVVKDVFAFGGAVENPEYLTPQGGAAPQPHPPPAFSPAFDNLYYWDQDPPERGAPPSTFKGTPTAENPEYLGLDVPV

`C=CC(=O)Nc1cccc(N2C(=O)N(c3ccccc3)Cc3cnc(Nc4ccc(N5CCN(C)CC5)nc4)nc32)c1` [Compound 110, N-(3-(7-((6-(4-methylpiperazin-1-yl)pyridin-3-yl)amino)-2-oxo-3-phenyl-3,4-dihydropyrimido[4,5-d]pyrimidin-1(2H)-yl)phenyl)acrylamide]: the IC50 with A431 cells came out at 3640 nM. For the same compound, the values for the GI50 in test [1], in test [2] and in test [3] were 43 nM, 102 nM and 103 nM, respectively.
The matching figures for `Cn1cc(Nc2ncc3c(n2)N(c2cccc(NC(=O)/C=C/CN4CCCCC4)c2)C(=O)N(c2ccccc2)C3)c(Cl)n1` [Compound 111, (E)-N-(3-(7-((3-chloro-1-methyl-1H-pyrazol-4-yl)amino)-2-oxo-3-phenyl-3,4-dihydropyrimido[4,5-d]pyrimidin-1(2H)-yl)phenyl)-4-(piperidin-1-yl)but-2-enamide]: ≥ 10000 nM, 39 nM, 128 nM and 64 nM.
For `C=CC(=O)Nc1cccc(N2C(=O)N(c3ccccc3)Cc3cnc(Nc4ccc(N5CCC(N(C)C)CC5)nc4)nc32)c1` [Compound 112, N-(3-(7-((6-(4-(dimethylamino)piperidin-1-yl)pyridin-3-yl)amino)-2-oxo-3-phenyl-3,4-dihydropyrimido[4,5-d]pyrimidin-1(2H)-yl)phenyl)acrylamide], the IC50 in the test on A431 cells was ≥ 10000 nM. Besides, the figures for the GI50 in test [1], in test [2] and in test [3] were 229 nM, 295 nM and 354 nM, respectively.
The matching figures for `C=CC(=O)Nc1cccc(N2C(=O)N(c3ccccc3)Cc3cnc(Nc4cn(C)nc4F)nc32)c1` [Compound 113, N-(3-(7-((3-fluoro-1-methyl-1H-pyrazol-4-yl)amino)-2-oxo-3-phenyl-3,4-dihydropyrimido[4,5-d]pyrimidin-1(2H)-yl)phenyl)acrylamide]: ≥ 10000 nM, 4 nM, 17 nM and 68 nM.
The like results for `CN(C)C/C=C/C(=O)Nc1cccc(N2C(=O)N(c3ccccc3)Cc3cnc(Nc4cccnc4F)nc32)c1` [Compound 114, (E)-4-(dimethylamino)-N-(3-(7-((2-fluoropyridin-3-yl)amino)-2-oxo-3-phenyl-3,4-dihydropyrimido[4,5-d]pyrimidin-1(2H)-yl)phenyl)but-2-enamide] were, in that order, ≥ 10000 nM, 164 nM, 1090 nM and 1150 nM.
The matching figures for `C=CC(=O)Nc1cccc(N2C(=O)N(c3ccccc3)Cc3cnc(Nc4cccnc4F)nc32)c1` [Compound 115, N-(3-(7-((2-fluoropyridin-3-yl)amino)-2-oxo-3-phenyl-3,4-dihydropyrimido[4,5-d]pyrimidin-1(2H)-yl)phenyl)acrylamide]: ≥ 10000 nM, 8 nM, 28 nM and 188 nM.
With `C=CC(=O)Nc1cccc(N2C(=O)N(c3ccccc3)Cc3cnc(Nc4cn(C)nc4Cl)nc32)c1` [Compound 116, N-(3-(7-((3-chloro-1-methyl-1H-pyrazol-4-yl)amino)-2-oxo-3-phenyl-3,4-dihydropyrimido[4,5-d]pyrimidin-1(2H)-yl)phenyl)acrylamide], the IC50 in the test on A431 cells was ≥ 10000 nM. The GI50 is 1 nM in test [1], 7 nM in test [2] and 24 nM in test [3].
The like results for `Cn1cc(Nc2ncc3c(n2)N(c2cccc(NC(=O)/C=C/CF)c2)C(=O)N(c2ccccc2)C3)c(Cl)n1` [Compound 117, (E)-N-(3-(7-((3-chloro-1-methyl-1H-pyrazol-4-yl)amino)-2-oxo-3-phenyl-3,4-dihydropyrimido[4,5-d]pyrimidin-1(2H)-yl)phenyl)-4-fluorobut-2-enamide] were, in that order, ≥ 10000 nM, 35 nM, 50 nM and 75 nM.
The like results for `C=CC(=O)Nc1cccc(N2C(=O)N(c3ccccc3)Cc3cnc(Nc4cccc5c4CCN5C4CCN(C)CC4)nc32)c1` [Compound 118, N-(3-(7-((1-(1-methylpiperidin-4-yl)indolin-4-yl)amino)-2-oxo-3-phenyl-3,4-dihydropyrimido[4,5-d]pyrimidin-1(2H)-yl)phenyl)acrylamide] were, in that order, ≥ 10000 nM, 32 nM, 110 nM and 103 nM.
The matching figures for `COC/C=C/C(=O)Nc1cccc(N2C(=O)N(c3ccccc3)Cc3cnc(Nc4cn(C)nc4Cl)nc32)c1` [Compound 119, (E)-N-(3-(7-((3-chloro-1-methyl-1H-pyrazol-4-yl)amino)-2-oxo-3-phenyl-3,4-dihydropyrimido[4,5-d]pyrimidin-1(2H)-yl)phenyl)-4-methoxybut-2-enamide]: ≥ 10000 nM, 98 nM, 140 nM and 144 nM.
For the compound `C/C=C/C(=O)Nc1cccc(N2C(=O)N(c3ccccc3)Cc3cnc(Nc4cn(C)nc4Cl)nc32)c1` [Compound 120, (E)-N-(3-(7-((3-chloro-1-methyl-1H-pyrazol-4-yl)amino)-2-oxo-3-phenyl-3,4-dihydropyrimido[4,5-d]pyrimidin-1(2H)-yl)phenyl)but-2-enamide], the IC50 in the test on A431 cells was ≥ 10000 nM. Further, the results for the GI50 in test [1], in test [2] and in test [3] were 107 nM, 183 nM and 158 nM, respectively.
The matching figures for `C=C(C)C(=O)Nc1cccc(N2C(=O)N(c3ccccc3)Cc3cnc(Nc4cn(C)nc4Cl)nc32)c1` [Compound 121, N-(3-(7-((3-chloro-1-methyl-1H-pyrazol-4-yl)amino)-2-oxo-3-phenyl-3,4-dihydropyrimido[4,5-d]pyrimidin-1(2H)-yl)phenyl)methacrylamide]: ≥ 10000 nM, 8600 nM, ≥ 10000 nM and 883 nM.
For the compound `Cn1cc(Nc2ncc3c(n2)N(c2cccc(NC(=O)/C=C/CN4CCOCC4)c2)C(=O)N(c2ccccc2)C3)c(Cl)n1` [Compound 122, (E)-N-(3-(7-((3-chloro-1-methyl-1H-pyrazol-4-yl)amino)-2-oxo-3-phenyl-3,4-dihydropyrimido[4,5-d]pyrimidin-1(2H)-yl)phenyl)-4-morpholinobut-2-enamide], in the test on A431 cells, the IC50 was ≥ 10000 nM. Besides, the GI50 in test [1] amounted to 101 nM; in test [2], 284 nM; in test [3] it was 132 nM.
The matching figures for `C=CC(=O)Nc1cccc(N2C(=O)N(c3ccccc3)Cc3cnc(Nc4cn(C(C)(C)C#N)nc4Cl)nc32)c1` [Compound 123, N-(3-(7-((3-chloro-1-(2-cyanopropan-2-yl)-1H-pyrazol-4-yl)amino)-2-oxo-3-phenyl-3,4-dihydropyrimido[4,5-d]pyrimidin-1(2H)-yl)phenyl)acrylamide trifluoroacetate salt]: ≥ 10000 nM, 176 nM, 300 nM and 319 nM.
The matching figures for `CN(C)C1CCN(C/C=C/C(=O)Nc2cccc(N3C(=O)N(c4ccccc4)Cc4cnc(Nc5cn(C)nc5Cl)nc43)c2)CC1` [Compound 124, (E)-N-(3-(7-((3-chloro-1-methyl-1H-pyrazol-4-yl)amino)-2-oxo-3-phenyl-3,4-dihydropyrimido[4,5-d]pyrimidin-1(2H)-yl)phenyl)-4-(4-(dimethylamino)piperidin-1-yl)but-2-enamide]: ≥ 10000 nM, 2760 nM, 4980 nM and 1480 nM.
For `CC#CC(=O)Nc1cccc(N2C(=O)N(c3ccccc3)Cc3cnc(Nc4cn(C)nc4Cl)nc32)c1` [Compound 125, N-(3-(7-((3-chloro-1-methyl-1H-pyrazol-4-yl)amino)-2-oxo-3-phenyl-3,4-dihydropyrimido[4,5-d]pyrimidin-1(2H)-yl)phenyl)but-2-ynamide], the IC50 with A431 cells is ≥ 10000 nM. The GI50 in test [1] worked out at 269 nM; in test [2], 338 nM; in test [3] it was 445 nM.

The IC50 is the concentration at which inhibition is half-maximal.
